In this test the target is AT2 receptor (Homo sapiens (Human), UniProt P50052). Description: AT2 receptor binding assay ([125I]-CGP42112A displacement, HEK293/AT2 receptor cell membranes). The settings on record: membranes of HEK293 cells transiently transfected with AT2 receptor; radioligand [125I]-CGP42112A; RT, 1.5 hrs. The protocol:
Biological Example 1: AT2 Receptor Binding
• 1. Trypsin-EDTA (for preparation of 100 mL) • Trypsin 0.25 g • 2% EDTA 2 mL • PBS 98 mL • Dissolve trypsin in 2% EDTA and PBS completely; sterilize the solution by passing through a […] membrane filter; store at 4° C. • 2. DMEM medium (for preparation of IL) • The powder was dissolved into 950 mL of distilled water with gentle stirring until the solution becomes clear. • Add NaHCO3 1.176 g for DMEM medium. • Adjust pH of medium to 0.2-0.3 below final working pH using 1 M NaOH or 1 M HCl. Add slowly with stirring. • Dilute to 1 liter with ddH2O. • Sterilize the medium immediately by filtration. • Store at 4° C. • 3. TE buffer • 20 mM Tris-HCl, pH 7.4. • 5 mM EDTA • 4. Binding Assay Buffer • 50 mM HEPES, pH 7.4 • 5 mM MgCl2 • 1 mM CaCl2 • 0.2% BSA • 5. […] Cells were ready for transfection after overnight incubation (the confluence reaches around 80%). • 75 μL Lipofectamine™ 2000 diluted in 6.25 mL OptiMEM I Reduced Serum Medium, was mixed gently, and incubated at room temperature for 5 minutes, 50 μg expression plasmid DNA diluted in 6.25 mL OptiMEM I Reduced Serum Medium without serum was mixed gently. • After the 5 minute incubation, the diluted DNA was combined with the diluted Lipofectamine™ 2000 (total volume is 12.5 mL). […]

The values that follow come from patent US9714224B2, “Heterocyclic compounds and methods of their use” (Novartis AG, priority 2013, dated 2017).

Chain of AT2 receptor (P50052 whole entry, species assumed): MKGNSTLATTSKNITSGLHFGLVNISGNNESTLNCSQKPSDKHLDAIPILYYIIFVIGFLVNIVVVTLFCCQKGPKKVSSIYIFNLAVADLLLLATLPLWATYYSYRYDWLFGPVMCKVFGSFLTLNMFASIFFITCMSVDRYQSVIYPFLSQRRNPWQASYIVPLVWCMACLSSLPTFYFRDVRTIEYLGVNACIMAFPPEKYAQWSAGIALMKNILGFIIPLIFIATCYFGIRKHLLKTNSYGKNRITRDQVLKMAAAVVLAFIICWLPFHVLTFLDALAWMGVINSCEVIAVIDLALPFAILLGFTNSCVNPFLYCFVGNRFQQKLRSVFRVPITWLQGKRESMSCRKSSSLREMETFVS

With `COc1ccc2c(c1O)C[C@@H](C(=O)NS(=O)(=O)N(C)C)N(C(=O)C(c1ccccc1)c1ccccc1)C2` [Compound 41], the IC50 is 1790 nM.
In turn, `COc1ccc2c(c1OCc1ccccc1)CC(C(=O)O[C@@H]1O[C@H](C(=O)O)[C@@H](O)[C@H](O)[C@H]1O)N(C(=O)C(c1ccccc1)c1ccccc1)C2` (some centres unmarked) [Compound 33] came in with an IC50 of 431 nM.
